# Laboratory results taken from patent publication US9428465B2, “Acid ceramidase inhibitors and their use as medicaments” (FONDAZIONE ISTITUTO ITALIANO DI TECHNOLOGIA, priority 2012, dated 2016).
# Legend:
# [1] = biological target: rat acid ceramidase (rAC) (Rattus norvegicus (Rat), UniProt Q6P7S1); assay: Rat acid ceramidase (rAC) enzymatic assay, LC/MS of lauric acid; type: biochemical; details: rat acid ceramidase, 100 μM N-lauroyl ceramide, pH 4.5
# Experimental: A lysosomal rat acid ceramidase (rAC) protein preparation was obtained from cells stably expressing rAC resuspended in 20 mM Tris HCl (pH 7.5) with 0.32 M sucrose. Samples were sonicated and centrifuged at 800×g for 15 min at 4° C. Supernatants were then centrifuged at 12,000×g for 30 min at 4° C. Pellets were re-suspended in PBS pH 7.4 and subjected to 2 freeze-thaw cycles at −80° C. The suspension was finally centrifuged at 105,000×g for 1 hr at 4° C. and the supernatant containing rAC was then used in the enzymatic assay.
# r-AC protein samples were pre-incubated with various concentrations of test compounds or vehicle control in 100 mM NaH2PO4/citrate buffer pH 4.5, 0.1% Nonidet P-40, 3 mM DTT for 30 min at 37° C. Samples were incubated with 100 μM N-lauroyl ceramide (Nu-Chek Prep, Elysian, Minn.) at 37° for 30 min. The reaction was stopped by addition of a mixture of chloroform/methanol (2:1 vol/vol) containing 1 nmol of heptadecanoic acid (HDA; NuChek Prep). The organic phases were collected, dried under nitrogen, and analyzed by LC/MS in the negative-ion mode using heptadecanoic acid (HDA) as internal standard (m/z=199 for lauric acid, m/z=269 for HDA). HDA was eluted on an XDB Eclipse C18 column isocratically at 2.2 mL/min for 1 min with a solvent mixture of 95% methanol and 5% water, both containing 0.25% acetic acid, and 5 mM ammonium acetate. The column temperature was 50° C. Electrospray ionization (ESI) was in the negative mode, capillary voltage was 4 kV, and fragmentor voltage was 100 V. Nitrogen was used as drying gas at a flow rate of 13 L/min and at a temperature of 350° C. Nebulizer pressure was set at 60 psi. We monitored [M-H]− in the selected-ion monitoring (SIM) mode using HDA as internal standard.
# Inhibition of rAC activity was calculated as a reduction of lauric acid in the samples compared to vehicle controls. Median inhibitory concentration (IC50) values were calculated by non-linear regression analysis of log [concentration]/inhibition curves using. GraphPad Prism 5 (GraphPad Software, Inc., CA, USA) applying a standard slope curve fitting.
# [2] = system: human colon adenocarcinoma cell line SW403; assay: Ceramide levels in SW403 cells (lipid extraction, LC/MS); type: cell-based; details: 3 μM, 3 hrs, vs. vehicle
# Experimental: Lipids were extracted using a chloroform/methanol mixture (2:1 vol/vol, 3 mL) containing internal standards. The organic phases were collected, dried under nitrogen, and dissolved in methanol/chloroform (3:1 vol/vol) for LC/MS analyses.
# Ceramides were analyzed by LC/MS^n, using a 1100-LC system (Agilent Technologies) equipped with an Ion Trap XCT and interfaced with ESI (Agilent Technologies). They were separated on a Poroshell 300 SB C18 column (2.1×75 mm i.d., 5 μm; Agilent Technologies) maintained at 30° C. A linear gradient of methanol in water containing 5 mM ammonium acetate and 0.25% acetic acid (from 80% to 100% of methanol in 3 man) was applied at a flow rate of 1 mL/min. […]
# Tissue-derived ceramides were identified by comparison of their LC retention times and MS^n fragmentation patterns with those of authentic standards (Avanti Polar Lipids). Extracted ion chromatograms were used to quantify myristoyl ceramide (C140, m/z 510.5>492.5>264.3), palmitoyl ceramide (C16:0, m/z 538.5>520.3>264.3), stearoyl ceramide (C18:0 m/z 566.5>548.3>264.3), lignoceroylceramide (C24:0 m/z 650.5>632.3>264.3), nervonoylceramide (C24:1 m/z 648.5>630.3>264.3) and using lauroyl ceramide standard (m/z 482.5>464.5>264.3). […]
# SW403 cells [3] = assay: SW403 cell viability, trypan blue assay; type: cell-based, human; details: prolonged (72 hrs) treatment, concentration-response, FIGS. 2A and 2B
# Experimental: (§1) Cells were seeded in 12- or 96-well plates in complete medium 24 hrs before treatment and then incubated for 24 hrs (single treatment) or 72 hrs (multiple treatments) with different drug concentrations in media without serum. Cell viability was then evaluated.
# The trypan blue exclusion assay is based on the principle that viable cells have intact cell membrane and can therefore exclude the trypan blue dye. Cell viability was measured after 24 hrs incubation with the drug. Cells were harvested, centrifuged at 1200 rpm for 10 min and pellets re-suspended in PBS. To evaluate viability, cells were diluted 1:1 with 0.4% trypan blue dye (Sigma), incubated for 1 min and white (viable) cells were counted with a hemacytometer.
# SW403 cells [4] = assay: SW403 cell viability, MTT assay; type: cell-based, human
# Experimental: as §1
# Alternatively, cell viability was assessed measuring mitochondrial functionality by the MIT assay, which is based on the reduction of the soluble tetrazolium salt MTT [(3-(4,5-dimethylthiazol-2-yl)-2,5-diphenyltetrazolium bromide] into insoluble formazan by mitochondria. Briefly, after treatment, cells were washed with PBS and incubated with 0.5 mg/ml, MTT for 2 hrs at room temperature, MTT reduction was quantified by absorbance at 570 nm using a UV-visible plate reader.
# SW403 cells [5] = assay: Isobolographic analysis of combined treatment of SW403 cells (ED50, trypan blue assay); type: cell-based, human
# Experimental: Interaction between drugs was assessed by isobolographic analysis, based on the concept of dose-equivalence which follows from the dose effect curves of the individual drugs (Tallarida R I, Interactions between drugs and occupied receptors. Pharmacol. Ther. 2007, 113, 197-209; Tallarida R J, Raffa R B, The application of drug dose equivalence in the quantitative analysis of receptor occupation and drug combinations. Pharmacol. Ther. 2010; 127, 165-174). Specifically, the individual drugs' potency and efficacy allow calculating the expected effect of a combination of the two drugs.
# In the experiment of combined treatment, isobolograms were constructed by plotting on vertical and horizontal axes the ED50 data of the single drugs measured by trypan blue assay after subcronic treatment for 72 hrs. The straight line with axial intercepts represents the isobole of additivity and allows calculating the theoretical additive dose. Synergism is indicated by an observed pair (x, y) that plots below the isobole for the specified effect, whereas sub-additivity is indicated when an observed pair (x, y) plots above the isobole.
# [6] = SW403 cells, 72 hrs, isobole of additivity, higher than the experimental values
# rat acid ceramidase (rAC), sequence (Q6P7S1 142-394): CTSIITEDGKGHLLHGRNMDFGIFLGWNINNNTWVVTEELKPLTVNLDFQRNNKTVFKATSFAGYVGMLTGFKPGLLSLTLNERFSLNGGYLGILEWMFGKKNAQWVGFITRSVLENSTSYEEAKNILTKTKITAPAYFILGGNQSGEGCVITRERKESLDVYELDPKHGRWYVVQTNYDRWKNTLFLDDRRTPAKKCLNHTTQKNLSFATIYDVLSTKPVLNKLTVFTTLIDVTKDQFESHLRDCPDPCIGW
# rat acid ceramidase (rAC), sequence (Q6P7S1 21-141): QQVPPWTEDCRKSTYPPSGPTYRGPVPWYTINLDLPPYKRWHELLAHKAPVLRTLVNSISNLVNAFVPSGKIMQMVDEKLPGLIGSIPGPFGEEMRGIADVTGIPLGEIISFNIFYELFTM
smiles,measurement,setting,value
"CCCCCCNC(=O)n1cc(C(F)(F)F)c(=O)[nH]c1=O [Example 4, N-hexyl-2,4-dioxo-5-(trifluoromethyl)pyrimidine-1-carboxamide]",IC50,[1],10 nM
same,"levels of C14:0, C16:0 and C18:0 ceramide",[2],increased
same,SW403 cell viability (trypan blue assay),SW403 cells [3],reduction of the viability
same,interaction with 5FU in reducing cell viability (MTT assay),"SW403 cells [4]; 72 hrs, compound 30 μM + 5FU 300 nM",synergistic effect
same,SW403 cell viability (MTT assay),"SW403 cells [4]; sub-chronic treatment 72 hrs, compounds 30 μM, 5FU 300 nM",reduced cell viability
same,theoretical dose (Th) to be used with 20 nM taxol to obtain an additive effect,SW403 cells [5]; [6],4.9 µM
same,theoretical dose (Th) to be used with 300 nM 5FU to obtain an additive effect,SW403 cells [5]; [6],7.8 µM
same,interaction with taxol in reducing viability of SW403 cells (isobologram),"SW403 cells [5]; prolonged treatment, 20 nM taxol, trypan blue ED50",synergistic effect
same,interaction with 5-fluorouracil in reducing viability of SW403 cells (isobologram),"SW403 cells [5]; prolonged treatment, 300 nM 5FU, trypan blue ED50",synergistic effect
